Results on one compound are retold here after paper PMC3572379, “Pharmacokinetic and pharmacodynamic effects of comedication of clopidogrel and dabigatran etexilate in healthy male volunteers” (European Journal of Clinical Pharmacology, 2012).

In test [1] the test system is blood coagulation parameters (aPTT, ECT, TT). Put plainly: Blood coagulation parameters aPTT, ECT and TT (anti-factor IIa). The test is classed as in vivo, healthy male subjects. To be noted: part 2; DE given alone or in combination with clopidogrel. On the procedure: The secondary endpoints included other PK parameters and the effects of clopidogrel on the PD of dabigatran assessed by ECT, aPTT, TT (including maximum effect ratio, ERmax) as well as the CBT.
Calibration curves for clopidogrel and SR26334 covered concentration ranges of 0.01–10 ng/mL and 0.02–20 μg/mL, respectively, with an inaccuracy generally below 4% and imprecision below 9%. For blood coagulation parameters aPTT, ECT, and TT (PD analyses), ∼3 mL of blood were collected in sodium citrate monovettes at the time points indicated for PK analyses. The blood samples were centrifuged, frozen, and stored at −20°C or below. The aPTT, ECT, and TT parameters were analyzed on an MC10PLUS coagulometer using validated methods by BiochemA, Riegel, Germany. aPTT was measured using a kit from Roche Diagnostics (Mannheim, Germany) according to manufacturer’s instructions, and the ECT assay utilized ecarin from Pentapharm (Basel, Switzerland). Thrombin inhibition (TT), anti-factor IIa, was measured by the Hemoclot Thrombin Inhibitors Assay® (Hemoclot® TT #CK002K, HYPHEN BioMed, Neuville-sur-Oise, France) according to the manufacturer’s instructions. The Hemoclot kit was used for the quantitative measurement of direct thrombin inhibitors in plasma, with a clotting method based on the inhibition of a constant and defined concentration of thrombin.
AUEC and ERmax of aPTT, ECT, and TT as well as CBT, and safety and tolerability were assessed descriptively as secondary parameters.

Test [2] in a line: Capillary bleeding time (Surgicutt device). The conditions noted are these: part 2. The class given is in vivo, healthy male subjects. As for the experimental part: The bleeding time was assessed by single measurements on the forearm using the Surgicutt® Bleeding Time Device (Product Number SUB50, International Technidyne, Edison, NJ, USA). Using a Surgicutt device, a standardized incision of 5 mm length and 1 mm depth was made in the skin. Every 30 s, the blood flow was wicked away cautiously with filter paper, so that the platelet plug remained intact, until the bleeding stopped. Normal bleeding time was under 8 min. For the CBT individual listings including the baseline value, the maximum value of the post-dose measurements, and the corresponding time of the maximum value were provided.

As for `COC(=O)[C@H](c1ccccc1Cl)N1CCc2sccc2C1` [Clopidogrel, clopidogrel], the “effect on dabigatran PK/PD relationship (TT, ECT, aPTT vs plasma concentration)” value in test [1] is on record as “No effect”. Moreover, in test [2], the “maximum capillary bleeding time (CBT)” value is listed as “prolonged”.
